The source of these data is US20230265151A1, “GIP/GLP1 CO-AGONIST COMPOUNDS” (priority 2020, published 2023).

For orientation: EC50 means the concentration giving half of the maximal effect. Usually Emax stands for the size of the effect at its maximum, as opposed to the concentration needed.

Common to all, as to assay type: cell-based
One assay deals with hGLP-1R (Homo sapiens, UniProt P43220). The assay can be described thus: Functional cAMP formation (HTRF) in HEK-293 clonal cells expressing hGLP-1R, 0.1% bovine casein, without or with 1.0% human serum albumin. Further details: expressed in transfected cells. Particulars: for EC50: geometric mean. The procedure, abridged:
(§1)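 Readings of the HTRF 665/620 nm ratio, which falls as cAMP rises, were converted to nM cAMP using a standard curve after 30 min peptide exposure at 37° C.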
A general note: cAMP levels reflect the balance of adenylyl cyclase and phosphodiesterase activity.

The target in the next assay is T1, hGIPR (Homo sapiens, UniProt P48546).
T1 construct: expressed in transfected cells
T1 sequence (P48546 22-466): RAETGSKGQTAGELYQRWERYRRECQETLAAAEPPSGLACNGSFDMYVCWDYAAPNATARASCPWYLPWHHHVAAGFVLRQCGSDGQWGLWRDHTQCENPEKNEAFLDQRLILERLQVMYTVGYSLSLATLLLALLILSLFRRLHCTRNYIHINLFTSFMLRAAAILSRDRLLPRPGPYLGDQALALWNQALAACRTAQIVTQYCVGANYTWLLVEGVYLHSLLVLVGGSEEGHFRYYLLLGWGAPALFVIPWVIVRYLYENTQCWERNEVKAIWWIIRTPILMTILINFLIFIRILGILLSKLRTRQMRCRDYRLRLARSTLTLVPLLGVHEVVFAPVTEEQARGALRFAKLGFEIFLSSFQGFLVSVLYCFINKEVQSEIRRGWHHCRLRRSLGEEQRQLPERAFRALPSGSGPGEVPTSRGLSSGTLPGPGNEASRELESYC
The assay can be described thus: Functional cAMP formation (HTRF) in HEK-293 clonal cells expressing hGIPR, 0.1% bovine casein, without or with 1.0% human serum albumin. Particulars: for EC50: geometric mean. The procedure, abridged: as §1

The next assay addresses T2, hGCGR (Homo sapiens, UniProt P47871).
T2 construct: expressed in transfected cells
The experiment in a line: Functional cAMP formation (HTRF) in HEK-293 clonal cells expressing hGCGR, 0.1% bovine casein, without or with 1.0% human serum albumin. Particulars: geometric mean. In outline: as §1

The mark [1] stands for this setting: 0.1% bovine casein and 1.0% human serum albumin, 37° C., read-out: hGLP-1R EC50, nM (SEM, n).
Setting [2] is: 0.1% bovine casein and 1.0% human serum albumin, 37° C., read-out: hGIPR EC50, nM (SEM, n).
[3] abbreviates: HEK293, 0.1% bovine casein and 1.0% human serum albumin, 37° C., percent of maximal response to GIP(1-42)NH2, read-out: hGIPR Emax, % ± SEM.
[4] abbreviates: cAMP, incubated at 37° C., 0.1% bovine casein (no human serum albumin), read-out: hGIPR EC50, nM (SEM, n).
[5] abbreviates: 0.1% bovine casein and 1.0% human serum albumin, 37° C., read-out: hGCGR EC50, nM (SEM, n).
Where [6] appears, read: cAMP, incubated at 37° C., 0.1% bovine casein (no human serum albumin), read-out: hGCGR EC50, nM (SEM, n).
[7] abbreviates: HEK293, percent of maximal response to GLP-1(7-36)NH2, 37° C., 0.1% bovine casein, arithmetic mean, read-out: hGLP-1R Emax, % ± SEM.
Where [8] appears, read: HEK293, percent of maximal response to GIP(1-42)NH2, 37° C., 0.1% bovine casein, arithmetic mean, read-out: hGIPR Emax, % ± SEM.

Where two headings read alike, the source gives them in different places.

Sequence of hGLP-1R (P43220 24-463): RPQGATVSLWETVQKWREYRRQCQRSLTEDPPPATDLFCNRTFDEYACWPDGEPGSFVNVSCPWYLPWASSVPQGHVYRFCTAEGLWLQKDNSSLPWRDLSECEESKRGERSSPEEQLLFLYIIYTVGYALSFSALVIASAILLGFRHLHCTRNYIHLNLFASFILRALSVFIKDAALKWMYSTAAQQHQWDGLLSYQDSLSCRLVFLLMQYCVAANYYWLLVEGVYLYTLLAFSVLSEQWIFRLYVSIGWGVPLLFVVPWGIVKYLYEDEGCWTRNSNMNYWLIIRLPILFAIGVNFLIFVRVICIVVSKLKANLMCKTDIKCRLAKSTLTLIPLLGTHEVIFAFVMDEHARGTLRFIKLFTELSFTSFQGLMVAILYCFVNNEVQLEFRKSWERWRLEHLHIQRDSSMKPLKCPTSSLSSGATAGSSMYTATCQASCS
T2 sequence (P47871 26-477): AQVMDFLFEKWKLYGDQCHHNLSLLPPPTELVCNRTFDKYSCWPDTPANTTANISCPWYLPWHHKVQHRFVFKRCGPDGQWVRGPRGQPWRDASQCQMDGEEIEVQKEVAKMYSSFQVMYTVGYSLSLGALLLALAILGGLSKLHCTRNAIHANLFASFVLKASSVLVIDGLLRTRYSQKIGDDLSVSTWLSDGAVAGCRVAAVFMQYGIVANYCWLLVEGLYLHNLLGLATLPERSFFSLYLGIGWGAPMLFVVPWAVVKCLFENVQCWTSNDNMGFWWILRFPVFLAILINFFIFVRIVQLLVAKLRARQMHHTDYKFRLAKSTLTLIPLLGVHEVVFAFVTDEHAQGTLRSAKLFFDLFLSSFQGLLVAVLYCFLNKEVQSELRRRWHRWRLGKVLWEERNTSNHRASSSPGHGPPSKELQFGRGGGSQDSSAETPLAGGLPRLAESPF

`CC[C@H](C)[C@H](NC(=O)[C@H](CC(C)C)NC(=O)[C@](C)(Cc1ccc(O)cc1)NC(=O)[C@@H](CCC(=O)O)NC(=O)[C@@H](NC(=O)[C@H](Cc1ccccc1)NC(=O)[C@H](CCC(=O)O)NC(=O)C(C)(C)NC(=O)[C@H](CCC(N)=O)NC(=O)[C@H](C)NC(=O)[C@H](CCCCNC(=O)COCCOCCNC(=O)COCCOCCNC(=O)CC[C@H](NC(=O)CCCc1ccc(C(C)(C)C)cc1)C(=O)O)NC(=O)[C@H](CCCN)NC(=O)[C@H](CC(=O)O)NC(=O)[C@H](CC(C)C)NC(=O)[C@](C)(CC(C)C)NC(=O)[C@@H](NC(=O)[C@H](CO)NC(=O)[C@H](Cc1ccncc1)NC(=O)[C@H](CC(=O)O)NC(=O)[C@H](CO)NC(=O)[C@@H](NC(=O)[C@](C)(Cc1ccccc1F)NC(=O)[C@@H](NC(=O)CNC(=O)[C@H](CCC(=O)O)NC(=O)C(C)(C)NC(=O)[C@@H](N)Cc1ccc(O)cc1)[C@@H](C)O)[C@@H](C)O)[C@@H](C)CC)[C@@H](C)CC)C(=O)N[C@@H](CCCCNC(=O)COCCOCCNC(=O)COCCOCCNC(=O)CC[C@H](NC(=O)CCCc1ccc(C(C)(C)C)cc1)C(=O)O)C(=O)NCC(=O)NCC(=O)N1CCC[C@H]1C(=O)N[C@@H](CO)C(=O)N[C@@H](CO)C(=O)NCC(=O)N[C@@H](C)C(=O)N1CCC[C@H]1C(=O)N1CCC[C@H]1C(=O)N1CCC[C@H]1C(=O)N[C@@H](CO)C(N)=O` [Example 133]: the EC50 on hGLP-1R (setting [1]) was 1.17 nM; on hGIPR (setting [2]), 0.0695 nM; on hGIPR (setting [4]), 0.018 nM; on hGCGR (setting [5]), more than 9950 nM; at hGCGR (setting [6]), more than 9950 nM. Besides, the Emax on hGIPR (setting [3]) stood at 89.1 ± 4.64%.

For `CC[C@H](C)[C@H](NC(=O)[C@H](CCCN)NC(=O)[C@H](CC(=O)O)NC(=O)[C@H](CC(C)C)NC(=O)[C@](C)(CC(C)C)NC(=O)[C@@H](NC(=O)[C@H](CO)NC(=O)[C@H](Cc1ccncc1)NC(=O)[C@H](CC(=O)O)NC(=O)[C@H](CO)NC(=O)[C@@H](NC(=O)[C@](C)(Cc1ccccc1F)NC(=O)[C@@H](NC(=O)CNC(=O)[C@H](CCC(=O)O)NC(=O)C(C)(C)NC(=O)[C@@H](N)Cc1ccc(O)cc1)[C@@H](C)O)[C@@H](C)O)[C@@H](C)CC)C(=O)N[C@@H](C)C(=O)N[C@@H](CCC(N)=O)C(=O)NC(C)(C)C(=O)N[C@@H](CCC(=O)O)C(=O)N[C@@H](Cc1ccccc1)C(=O)N[C@H](C(=O)N[C@@H](CCCCNC(=O)COCCOCCNC(=O)COCCOCCNC(=O)CC[C@H](NC(=O)CCCCCCCCCCCCC(=O)O)C(=O)O)C(=O)N[C@@](C)(Cc1ccc(O)cc1)C(=O)N[C@@H](CC(C)C)C(=O)N[C@H](C(=O)N[C@@H](CCC(=O)O)C(=O)NCC(=O)NCC(=O)N1CCC[C@H]1C(=O)N[C@@H](CO)C(=O)N[C@@H](CO)C(=O)NCC(=O)N[C@@H](C)C(=O)N1CCC[C@H]1C(=O)N1CCC[C@H]1C(=O)N1CCC[C@H]1C(=O)N[C@@H](CO)C(=O)N[C@@H](CCCCNC(=O)COCCOCCNC(=O)COCCOCCNC(=O)CC[C@H](NC(=O)CCCCCCCCCCCCC(=O)O)C(=O)O)C(N)=O)[C@@H](C)CC)[C@@H](C)CC` [Example 72], the Emax turned out to be 98.8% on hGLP-1R (HEK293, read-out: hGLP-1R Emax, % ± SEM, 0.1% bovine casein and 1.0% human serum albumin, 37° C., percent of maximal response to GLP-1(7-36)NH2); 95.9% on hGIPR (HEK293, read-out: hGIPR Emax, % ± SEM, 0.1% bovine casein and 1.0% human serum albumin, 37° C., percent of maximal response to GIP(1-42)NH2); 96.5 ± 3.71% on hGIPR (HEK293, read-out: hGIPR Emax, % ± SEM, percent of maximal response to GIP(1-42)NH2, 37° C., 0.1% bovine casein, arithmetic mean). In addition, the EC50 at hGLP-1R (hGLP-1R EC50, nM (SEM, n), 0.1% bovine casein and 1.0% human serum albumin, 37° C.) is 40.1 nM; at hGLP-1R (hGLP-1R EC50, nM (SEM, n), cAMP, incubated at 37° C., 0.1% bovine casein (no human serum albumin)), 0.245 nM; on hGIPR (hGIPR EC50, nM (SEM, n), 0.1% bovine casein and 1.0% human serum albumin, 37° C.), 3.55 nM; at hGCGR (hGCGR EC50, nM (SEM, n), 0.1% bovine casein and 1.0% human serum albumin, 37° C.), more than 9950 nM; on hGCGR (hGCGR EC50, nM (SEM, n), cAMP, incubated at 37° C., 0.1% bovine casein (no human serum albumin)), more than 9950 nM.

Take `CC[C@H](C)[C@H](NC(=O)[C@H](CC(C)C)NC(=O)[C@](C)(Cc1ccc(O)cc1)NC(=O)[C@@H](CCC(=O)O)NC(=O)[C@@H](NC(=O)[C@H](Cc1ccccc1)NC(=O)[C@H](CCC(=O)O)NC(=O)C(C)(C)NC(=O)[C@H](CCC(N)=O)NC(=O)[C@H](C)NC(=O)[C@H](CCCCNC(=O)COCCOCCNC(=O)COCCOCCNC(=O)CC[C@H](NC(=O)CCCCCCCCCCCCC(=O)O)C(=O)O)NC(=O)[C@H](CCCN)NC(=O)[C@H](CC(=O)O)NC(=O)[C@H](CC(C)C)NC(=O)[C@](C)(CC(C)C)NC(=O)[C@@H](NC(=O)[C@H](CO)NC(=O)[C@H](Cc1cccs1)NC(=O)[C@H](CC(=O)O)NC(=O)[C@H](CO)NC(=O)[C@@H](NC(=O)[C@](C)(Cc1ccccc1F)NC(=O)[C@@H](NC(=O)CNC(=O)[C@H](CCC(=O)O)NC(=O)C(C)(C)NC(=O)[C@@H](N)Cc1ccc(O)cc1)[C@@H](C)O)[C@@H](C)O)[C@@H](C)CC)[C@@H](C)CC)C(=O)N[C@@H](CCC(=O)O)C(=O)NCC(=O)NCC(=O)N[C@@H](CCCCNC(=O)COCCOCCNC(=O)COCCOCCNC(=O)CC[C@H](NC(=O)CCCCCCCCCCCCC(=O)O)C(=O)O)C(=O)N[C@@H](CO)C(=O)N[C@@H](CO)C(=O)NCC(=O)N[C@@H](C)C(=O)N1CCC[C@H]1C(=O)N1CCC[C@H]1C(=O)N1CCC[C@H]1C(=O)N[C@@H](CO)C(N)=O` [Example 145]: the Emax came to 95.1% on hGLP-1R (setting [7]) and 74.8% on hGIPR (setting [8]). Besides, the EC50 is 0.555 nM on hGLP-1R (cAMP, incubated at 37° C., 0.1% bovine casein (no human serum albumin), read-out: hGLP-1R EC50, nM (SEM, n)); 0.0286 nM on hGIPR (setting [4]); more than 9950 nM at hGCGR (setting [6]).

Regarding `CC[C@H](C)[C@H](NC(=O)[C@H](CC(C)C)NC(=O)[C@](C)(Cc1ccc(O)cc1)NC(=O)[C@@H](CCC(=O)O)NC(=O)[C@@H](NC(=O)[C@H](Cc1ccccc1)NC(=O)[C@H](CCC(=O)O)NC(=O)C(C)(C)NC(=O)[C@H](CCC(N)=O)NC(=O)[C@H](C)NC(=O)[C@H](CCCCNC(=O)COCCOCCNC(=O)COCCOCCNC(=O)COCCOCCNC(=O)CC[C@H](NC(=O)CCCCCCCCCCCCC(=O)O)C(=O)O)NC(=O)[C@H](CCCN)NC(=O)[C@H](CC(=O)O)NC(=O)[C@H](CC(C)C)NC(=O)[C@](C)(CC(C)C)NC(=O)[C@@H](NC(=O)[C@H](CO)NC(=O)[C@H](Cc1ccncc1)NC(=O)[C@H](CC(=O)O)NC(=O)[C@H](CO)NC(=O)[C@@H](NC(=O)[C@](C)(Cc1ccccc1F)NC(=O)[C@@H](NC(=O)CNC(=O)[C@H](CCC(=O)O)NC(=O)C(C)(C)NC(=O)[C@@H](N)Cc1ccc(O)cc1)[C@@H](C)O)[C@@H](C)O)[C@@H](C)CC)[C@@H](C)CC)C(=O)N[C@@H](CCC(=O)O)C(=O)NCC(=O)NCC(=O)N1CCC[C@H]1C(=O)N[C@@H](CO)C(=O)N[C@@H](CO)C(=O)NCC(=O)N[C@@H](C)C(=O)N1CCC[C@H]1C(=O)N1CCC[C@H]1C(=O)N1CCC[C@H]1C(=O)N[C@@H](CO)C(=O)N[C@@H](CCCCNC(=O)COCCOCCNC(=O)COCCOCCNC(=O)COCCOCCNC(=O)CC[C@H](NC(=O)CCCCCCCCCCCCC(=O)O)C(=O)O)C(N)=O` [Example 225], the EC50 on hGLP-1R (setting [1]) is 51.6 nM; at hGIPR (setting [2]), 1.81 nM; at hGCGR (setting [5]) it was more than 9950 nM; at hGCGR (setting [6]), more than 9950 nM. For the same compound, the Emax was determined as 92.1% on hGLP-1R (setting [7]), 67.5% on hGIPR (setting [3]) and 105% on hGIPR (setting [8]).
